Measurements taken from PMC6832134, “Discovery of Novel Integrase Inhibitors Acting outside the Active Site Through High-Throughput Screening” (Molecules, 2019).

Experiments:
in vitro = conditions: human
HIV-1 integrase = target: T1, HIV-1 integrase (Human immunodeficiency virus type 1 group M subtype B, UniProt P12497); experiment: Electrochemiluminescent integrase strand transfer assay (BioVeris), high-throughput screen; type: biochemical; conditions: single dose 10 µM; read-out: inhibition of IN ST activity
T1 construct: 250 nM of recombinant HIV-1 integrase; made in house; host or cells: E. coli RosettaII
Experimental: To enable a high-throughput screening, we used the ST assay developed by BioVeris. This proprietary plate-based assay measured stand transfer using electrochemiluminescent technology. First, we validated the assay using HIV-1 IN in the presence of DMSO, or increasing concentrations of a known inhibitor, MA-DKA (also known as 118-D-24, Figure 1A). […] Next, we used MA-DKA as a control in every test plate and screened a large library of molecules. Overall, 3095 compounds were tested as part of the NCI Developmental Therapeutics Program’s small molecule plated sets from the Open Chemical Repository Collection. […] A single dose testing (10 µM) enabled the identification of 130 molecules that inhibited ST by over 50% (light dashed line, Figure 1A). […] NSC153308 is a 2-phenacylsulfanylacetic acid that resembles the diketo acid chemotype. On the other side, NSC119889 is a xanthene derivative similar to V-165 [6]. […] However, the purpose of this study was to identify a new chemotype that might act on IN via a novel mechanism, distinct from known active site inhibitors. Accordingly, we retrieved the chemical structure of the 130 hits and looked for a chemical pattern different from that of conventional strand transfer inhibitors.
This electrochemiluminescent plate-based assay was performed using a BioVeris M-SERIES Analyzer (Gaithersburg, MD, USA). DNA substrates were obtained from BioVeris and used according to the manufacturer’s recommendations. Briefly, a biotinylated donor DNA was incubated for 30 min at 37 °C in the presence of 250 nM of recombinant HIV-1 integrase. Complexes were bound to paramagnetic streptavidin-coated beads (M-280 Dynabeads). After addition of the drug, the integration reaction was initiated by addition of a ruthenium-labeled target DNA. The reaction was carried out for 60 min at 37 °C, before reading on the BioVeris M-SERIES Analyzer.

[1] = target: T2, isolated catalytic core domain (CCD) (51–212) (Human immunodeficiency virus type 1 group M subtype B, UniProt P12497); experiment: Schiff base IN-DNA crosslinking assay, isolated CCD; type: binding, HIV-1
T2 construct: the isolated catalytic core domain (CCD) (51–212); made in house; host or cells: E. coli RosettaII
Text: (§1) To gain further evidence that NSC34931 interferes with DNA binding, and to determine the role of outer domains in this inhibition, we evaluated the ability of NSC34931 to inhibit the formation of IN-DNA crosslinks using our previously described Schiff base assay. Briefly, a deoxyuracyl nucleotide is incorporated in the DNA substrate to generate an abasic site via uracyl DNA glycosylase. IN forms a covalent complex (Schiff base), which can be stabilized by reduction with sodium borohydride (Figure 5A). Full-length IN, but also the isolated CCD or CTD domains, can crosslink DNA ([…]). Consistent with anisotropy data, NSC34931 suppresses the formation of IN-DNA crosslinks in the context of the full-length IN (Figure 5B, upper gel). Of note, the effective dose to inhibit this reaction is similar to that needed to inhibit 3′-P or ST (about 0.45 µM). In contrast, the IN CCD requires a 10 times higher concentration of compound to prevent DNA crosslinking, confirming that the NTD or the CTD are important for NSC34931 inhibition. Lastly, the same experiment was conducted with the isolated CTD (Figure 5B, lower gel).
(§2) Figure 5 Inhibition of IN-DNA binding by NSC34931. (A) Principle of the Schiff base crosslinking assay. An abasic site was introduced by uracil DNA glycosylase in the DNA substrate at the -12 position. […]

full-length IN (1–288) = target: T3, full-length IN (1–288) (Human immunodeficiency virus type 1 group M subtype B, UniProt P12497); experiment: Schiff base IN-DNA crosslinking assay, full-length IN; type: binding, HIV-1
T3 construct: using full-length IN (1–288), the isolated catalytic core domain (CCD) (51–212); made in house; host or cells: E. coli RosettaII
Text: as §1, §2

full-length IN = target: T4, full-length IN (Human immunodeficiency virus type 1 group M subtype B, UniProt P12497); experiment: Disintegration reaction, full-length IN; type: biochemical, HIV-1; conditions: branched substrate
T4 construct: using full-length IN (1–288), the isolated catalytic core domain (CCD) (51–212); made in house; host or cells: E. coli RosettaII
Text: Conventional IN strand transfer inhibitors bind at the interface created by the protein, viral DNA, and two magnesium cations in the catalytic site of the enzyme. Because stilbene disulfonic acid derivatives inhibit both 3′-P and ST with a similar efficiency, they may act outside the IN catalytic site. To determine if IN domains other than the catalytic core domain (CCD) are involved in the inhibitory activity of NSC34931, we tested this compound on disintegration, the only IN-mediated reaction that can be catalyzed by the isolated CCD. Disintegration is equivalent to a reverse-ST reaction (Figure 3A). Using a branched substrate, the WT enzyme as well as the isolated CCD catalyzed disintegration with similar efficiency (Figure 3B). NSC34931 inhibited disintegration catalyzed by the full-length IN at concentrations above 4.1 µM (Figure 3B,C). However, NSC34931 was unable to inhibit disintegration catalyzed by the CCD at concentrations up to 37 µM (Figure 3B,C). These experiments indicate that the N-terminal domain (NTD) and/or the C-terminal domain (CTD) are essential for IN inhibition by NSC34931.
Figure 3 Inhibition of the disintegration reaction by NSC34931. (A) Schematic representation of the disintegration reaction. […]

**Q.** With `O=S(=O)(O)c1cc(/N=N/c2cc(S(=O)(=O)O)c3ccccc3c2O)ccc1/C=C/c1ccc(/N=N/c2cc(S(=O)(=O)O)c3ccccc3c2O)cc1S(=O)(=O)O` [NSC34931] as the molecule, how does the CC50 (in vitro) read?
**A.** 59 µM

**Q.** What about the inhibition at 10 µM (HIV-1 integrase) of the same molecule?
**A.** 77.8%

**Q.** What about the “fold higher concentration required to prevent DNA crosslinking vs full-length IN” value [1] of the same molecule?
**A.** 10

**Q.** What about the “effective dose to inhibit IN-DNA crosslink formation” value (full-length IN (1–288)) of the same molecule?
**A.** about 0.45 µM

**Q.** What about the concentrations inhibiting disintegration (full-length IN) of the same molecule?
**A.** above 4.1 µM
